From PMC7313459, “Insights into the Mn^2+ Binding Site in the Agmatinase-Like Protein (ALP): A Critical Enzyme for the Regulation of Agmatine Levels in Mammals” (International Journal of Molecular Sciences, 2020)

Biological target: T1, central-ALP (Rattus norvegicus, UniProt A0A8I6ASI2)
T1 construct: gene Limch1
Test: urea formation, colorimetric (alpha-isonitrosopropiophenone, […] nm)
Format: biochemical
Conditions: 5 mM MnCl2, 50 mM glycine-NaOH pH 9.0, 37 °C; not pre-heated

T1 sequence (A0A8I6ASI2 141-351): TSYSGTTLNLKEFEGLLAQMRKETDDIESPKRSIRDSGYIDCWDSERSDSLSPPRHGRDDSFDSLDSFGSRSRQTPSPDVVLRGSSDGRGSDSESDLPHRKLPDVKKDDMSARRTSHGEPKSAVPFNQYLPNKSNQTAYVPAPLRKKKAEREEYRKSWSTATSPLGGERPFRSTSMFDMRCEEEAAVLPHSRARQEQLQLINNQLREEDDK

N=C(N)NCCCCN [agmatine, 1-amino-4-guanidinobutane]
Km: 1200 ± 370 µM
